{"source": "patent US6291496A", "about": "“Treating cancers associated with overexpression of class I family of receptor tyrosine kinases” (priority 1999, dated 2001)", "key": {"HER-2/neu promoter": {"test_system": "HER-2/neu promoter", "assay": "transient transfection assay, human HER-2/neu promoter construct ligated to luciferase, 184B5/HER cells", "assay_type": "cell-based", "settings": "0-25 μM, 24 hours, FIG. 1", "description": "To determine whether PPARγ ligands inhibit HER-2/neu promoter activity, a transient transfection assay was performed. 184B5/HER cells were transfected with 1.8 μg of a human HER-21neu promoter construct ligated to luciferase (-1571/--24) and 0.2 μg pSVβgal (Promega Corp., Madison Wis.). The HER-2/neu promoter (-1571/--24) is described in Hudson, L. G. et al, J. Biol. Chem. 265, 4389-4393 (3/90), the whole of which is incorporated herein by reference. The promoter constructs are described in Hudson, L. G., et al, Cell 62, 1165-1175(1990). 184B5/HER cells were seeded at a density of5×10^4 cells well in 6-well dishes and grown to 50-60% confluence. For each well, 2 μg of […] DNA were introduced into cells using 8 μg of LIPOFECTAMINE (Life Technologies, Inc., Grand Island, N.Y.) as per the manufacturer's instructions. Following transfection, the cells were treated with ciglitazone (0, 5, 10, 15, 20 and 25 μM) or 15d-PGJ2 (0, 5, 10, 15, 20 and 25 μM) for 24 hours.\nThe activities of luciferase and β-galactosidase were measured in cellular extract as described in Mestre, J. R. et al, Cancer Res. 57, 1081-1085 (1997)."}, "[1]": {"test_system": "non-small cell lung carcinoma where EGFR is overexpressed", "assay": "Example VI: non-small cell lung carcinoma metastasized to liver", "assay_type": "in vivo, human", "settings": "patient, oral 5 mg/kg twice daily", "description": "After one month, PPARγ ligand administration is continued in combination with infusion of cisplatin every four weeks at 60 mg/m^2 for 12 more weeks."}, "EGFR promoter": {"test_system": "EGFR promoter", "assay": "transient transfection assay, human EGFR promoter construct ligated to luciferase, 184B5 cells", "assay_type": "cell-based", "settings": "0-25 μM, 24 hours, FIG. 2", "description": "To determine whether PPARγ ligands inhibit EGFR promoter activity, a transient transfection assay was performed, 184B5 cells were transfected with 1.8 μg of a human EGFR promoter construct ligated luciferase (-1100/-19) and 0.2 μg pSVβgal (Promega Corp., Madison, Wis.). The EGFR promoter is described in Hudson, L. G., et al, Cell 62, 1165-1175 (1990), the whole of which is incorporated herein by reference. 184B5 cells were seeded at a density of 5×10^4 cells/well in 6-well dishes and grown to 50-60% confluence. For each well 2 μg of […] DNA were introduced into cells using 8 μg of LIPOFECTAMINE (Life Technologies, Inc., Grand Island, N.Y.) as per the manufacturers instructions. Following transfection, the cells were treated with ciglitazone (0, 5, 10, 15, 20 and 25 μM) or 15-d-PGJ2 (0, 5, 10, 15, 20, and 25 μM) for 24 hours. The activities of luciferase and β-galactosidase were measured in cellular extract as described in Mestre, J. R, et al, Cancer Res. 57, 1081-1085 (1997). The results are shown in FIG. 2 where luciferase activity represents data that have been normalized to β-galactosidase activity (columns, means; bars, S. D., n=6; * means p<0.01 compared to control)."}, "[2]": {"test_system": "HER-2/neu positive breast cancer metastasized to lung and liver", "assay": "Example III: breast cancer metastasized to lung and liver", "assay_type": "in vivo, human", "settings": "patient, oral 5 mg/kg twice daily", "description": "After three months, the PPARγ ligand administration is continued in combination regimen with Taxol® at a dose of 175 mg/m^2 administered intravenously every three weeks."}, "[3]": {"test_system": "Stage IV EGFR positive breast cancer tumors", "assay": "Example VIII: breast cancer with Stage IV EGFR positive tumors", "assay_type": "in vivo, human", "settings": "oral 5 mg/kg twice daily in combination with CETUXIMAB and Taxol"}, "HER-2/neu transcription": {"test_system": "HER-2/neu transcription", "assay": "nuclear run-off assay of HER-2/neu transcription in 184B5/HER cells", "assay_type": "cell-based, human", "settings": "ciglitazone 5, 10 or 25 μM, 24 hours", "description": "To determine whether PPARγ ligands inhibit the transcription of HER-2/neu, a nuclear run-off assay was carried out. 184B5/HER cells were treated with vehicle (0.01% dimethyl sulfoxide) or ciglitazone (5,10 or 25 μM) for 24 hours. 2.5×10^5 cells were plated in four T150 dishes for each condition. Cells were grown in growth medium until 60% confluent. Nuclei were isolated and stored in liquid nitrogen. The HER-2/neu and 18S rRNA cDNAs were immobilized on a nitrocellulose membrane (Schleicher & Schuell, Keene, N.H.) and prehybridized overnight in hybridization buffer."}, "[4]": {"test_system": "EGFR positive breast cancer", "assay": "Example IX: adjuvant therapy after mastectomy", "assay_type": "in vivo, human", "settings": "patient, oral 5 mg/kg twice daily for five years after mastectomy"}, "[5]": {"test_system": "HER-2/neu positive colon cancer", "assay": "Example V: after resection of colon cancer", "assay_type": "in vivo, human", "settings": "patient, oral 5 mg/kg twice daily for five years after resection"}, "[6]": {"test_system": "HER-2/neu in 184B5/HER cells", "assay": "immunoblot for HER-2/neu in 184B5/HER cells", "assay_type": "cell-based, human", "settings": "25 μM ciglitazone or 20 μM 15-d-PGJ2, 24 hours", "text": "The 184B5/HER cell line was obtained from a collaborator and was derived by stably transfecting 184B5 cells with a mutationally activated HER-2/neu oncogene; these cells form rapidly growing tumors when injected into athymic nude mice. The 184B5/HER cell line is described in Pierce, J. H., et al., Oncogene 6, 1189-1194 (1991). The BT-474 cell line is a human breast cancer adenocarcinoma cell line which overexpresses HER-2/neu, and was obtained from the American Type Culture Collection (Manassas, Va.) and bears accession number ATCC HBT-20.\n184B5/HER cells were maintained in MEM-KBM mixed in a ratio of 1:1 (basal medium) containing epidermal growth factor (10 ng/ml), hydrocortisone (0.5 μg/ml), transferrin (10 μg/ml), gentamicin (5 μg/ml) and insulin (10 μg/ml) (growth medium). […] cells were grown to 60% confluence, trypsinized with 0.05% trypsin-2 mM ethylenediaminotetraacetic acid, and plated for experimental use. […]\n184B5/HER cells were treated with vehicle (0.01% dimethylsulfoxide), 25 μM ciglitazone (Biomol, Plymouth Meeting, Pennsylvania) or 20 μM 15-d-PGJ2 (Biomol, Plymouth Meeting, Pennsylvania) for 24 hours. […] The protein concentration of the supernatant was measured by the method of Lowry, O. H., et al, J. Biol. Chem. 193, 265-275 (1951). […]"}}, "data": [{"smiles": "CC1(COc2ccc(CC3SC(=O)NC3=O)cc2)CCCCC1", "note": "(stereo not drawn) [ciglitazone]", "values": [{"measurement": "HER-2/neu promoter activity (luciferase normalized to β-galactosidase)", "setting": "HER-2/neu promoter", "value": "inhibited HER-2 neu promoter activity in a dose-dependent fashion"}, {"measurement": "tumor burden", "setting": "[1]", "value": "reduced tumor burden"}, {"measurement": "EGFR promoter activity (luciferase normalized to β-galactosidase)", "setting": "EGFR promoter", "value": "inhibited EGFR promoter activity in a dose-dependent fashion"}, {"measurement": "tumor burden", "setting": "[2]", "value": "reduced tumor burden"}, {"measurement": "tumor burden", "setting": "[3]", "value": "reduced tumor burden"}, {"measurement": "HER-2/neu transcription (nuclear run-off)", "setting": "HER-2/neu transcription", "value": "dose-dependent suppression of HER-2/neu transcription"}, {"measurement": "recurrence of breast cancer", "setting": "[4]", "value": "Recurrence of breast cancer dose not occur"}, {"measurement": "recurrence of colon cancer", "setting": "[5]", "value": "Recurrence of colon cancer does not occur"}, {"measurement": "amount of HER-2/neu (immunoblot)", "setting": "[6]", "value": "decreased the amount of HER-2/neu"}]}]}
